Reference: US20250276998A1, “NOVEL DAROBACTIN DERIVATIVES” (Helmholtz-Zentrum Fur Infektionsforschung GmbH, priority 2021, published 2025)
≈ marks a conversion by molar mass, not a printed value.

Columns and labels:
[1] = tested on: E. coli ATCC25922; test: MIC assay of crude extracts, relative activity vs darobactin A; format: cell-based, Escherichia coli; conditions: crude extract, relative to darobactin A, amount from LC-MS AUC
Procedure: (§1) Crude extracts of darobactin derivatives obtained by the heterologous expression and separation protocol described above were tested for their activity against exemplified Gram-negative bacteria with a minimum inhibitory concentration (MIC) assay. The presence of darobactin derivatives in the crude extracts was verified by checking the expected masses via LC-MS.
(§2) For the MIC assay, 10 μl of crude extract of each test sample, diluted in 50% methanol/H2O, was added each into a well of the first row of a 96 well plate. […] Then, 75 μl of cation-adjusted Mueller-Hinton broth medium was added to each well and the samples contained in the first row were mixed with the 75 μl medium/extract mixture. Starting from the […] mixtures in the first row, serial dilutions of the respective mixtures were prepared in corresponding subjacent rows of the 96 well plate. Bacterial suspensions of each strain to be tested were diluted 1:100 in cation-adjusted Mueller-Hinton broth to obtain a final inoculum of approximately 10^6 CFU/mL. 75 μl of each bacterial suspension to be tested was added to the respective crude extract samples in the wells of the 96 well plate and the plates were incubated at either 30° C. or 37° C. for at least 24 h under static conditions. Plates were then checked visually and MIC was determined as lowest concentration where no visible growth was observed. In order to quantify the activity of the obtained darobactin derivatives, their relative activity in relation to the activity of darobactin A was determined. The amount of darobactin derivative present in the extract test sample was calculated based on the area under the curve (AUC) of the mass peak as automatically calculated by software DataAnalysis 4.2 and extracted from the LC-MS measurements of each of the crude extract samples. Using the AUC of the mass peak of darobactin A (DA) as calibration standard, i.e. ratio between AUC of darobactin derivative and darobactin A was correlated to amount of compound present in sample. The results of activities of tested darobactin derivatives against exemplified Gram-negative bacteria as compared to the activity of darobactin A are summarized in Table 5 below.

[2] = tested on: Pseudomonas aeruginosa PA01; test: as above; format: cell-based; conditions: crude extract, relative to darobactin A, amount from LC-MS AUC
Procedure: as §1, §2

[3] = tested on: Klebsiella pneumoniae DSM-30104; test: as above; format: cell-based; conditions: crude extract, relative to darobactin A, amount from LC-MS AUC
Procedure: as §1, §2

[4] = tested on: Acinetobacter baumannii DSM-30008; test: as above; format: cell-based; conditions: crude extract, relative to darobactin A, amount from LC-MS AUC
Procedure: as §1, §2

[5] = tested on: E. coli ATCC25922; test: Microbroth dilution of crude extracts, concentration factor at full growth inhibition; format: cell-based, Escherichia coli
Procedure: (§3) Crude extracts containing the respective darobactin derivatives obtained by the heterologous expression and separation protocol described above were tested for their activity against exemplified Gram-negative bacteria in standard microbroth dilution assays. The presence of darobactin derivatives in the crude extracts was verified by checking the expected masses via LC-HRMS.
(§4) All microorganisms were handled according to standard procedures as recommended by the depositor. Strains were obtained from the German Collection of Cell Cultures and Microorganisms (Klebsiella pneumoniae DSM-30104, Acinetobacter baumannii DSM-30007 and A. baumannii DSM-30008), the American Type Culture Collection (Escherichia coli ATCC-25922), or were part of our internal strain collection (Pseudomonas aeruginosa PAO1, PA14 and PA14ΔmexAB).
(§5) For the MIC assay, 10 μl of crude extract of each test sample, diluted in 50% methanol/H2O, was added each into a well of the first row of a 96 well plate. […] Then, 75 μl of cation-adjusted Mueller-Hinton broth medium was added to each well and the samples contained in the first row were mixed with the 75 μl medium/extract mixture. Starting from the 150 μl mixtures in the first row, serial dilutions of the respective mixtures were prepared in corresponding subjacent rows of the 96 well plate. […]

[6] = tested on: A. baumannii DSM-30008; test: as above; format: cell-based, Acinetobacter baumannii; conditions: A. baumannii DMS-30008
Procedure: as §3, §4, §5

[7] = tested on: K. pneumoniae DSM-30104; test: as above; format: cell-based, Klebsiella pneumoniae
Procedure: as §3, §4, §5

[8] = tested on: P. aeruginosa PAO1; test: as above; format: cell-based, Pseudomonas aeruginosa
Procedure: as §3, §4, §5

[9] = tested on: A. baumannii 046 (OXA-40); test: MIC against clinical isolates of A. baumannii; format: cell-based, Acinetobacter baumannii; conditions: clinical isolate A. baumannii 046 (OXA-40)
[10] = tested on: A. baumannii 047 (OXA-235); test: MIC against clinical isolates of A. baumannii; format: cell-based, Acinetobacter baumannii; conditions: clinical isolate A. baumannii 047 (OXA-235)
[11] = tested on: A. baumannii 054 (OXA-51-ISAba1); test: MIC against clinical isolates of A. baumannii; format: cell-based, Acinetobacter baumannii; conditions: clinical isolate A. baumannii 054 (OXA-51-ISAba1)
[12] = tested on: A. baumannii 045 (OXA-58); test: MIC against clinical isolates of A. baumannii; format: cell-based, Acinetobacter baumannii; conditions: clinical isolate A. baumannii 045 (OXA-58)
[13] = tested on: A. baumannii 038 (OXA-23); test: MIC against clinical isolates of A. baumannii; format: cell-based, Acinetobacter baumannii; conditions: clinical isolate A. baumannii 038 (OXA-23)
[14] = tested on: A. baumannii 070 (NDM-1); test: MIC against clinical isolates of A. baumannii; format: cell-based, Acinetobacter baumannii; conditions: clinical isolate A. baumannii 070 (NDM-1)

Compound | Relative activity [1] | Relative activity [2] | Relative activity [3] | Relative activity [4] | also measured
NCCC[C@H]1c2ccc3c(c[nH]c3c2)[C@H]2Oc3cccc4c(c[nH]c34)C[C@H](N)C(=O)N[C@@H](CC(N)=O)C(=O)N[C@@H]2C(=O)N[C@@H](CO)C(=O)N[C@@H]1C(=O)N[C@@H](CO)C(=O)N[C@@H](Cc1ccc(O)cc1)C(=O)O [Darobactin 10] | 0 | + | 0 | 0 | –
NCCC[C@H]1c2ccc3c(c[nH]c3c2)[C@H]2Oc3cccc4c(c[nH]c34)C[C@H](N)C(=O)N[C@@H](CCC(N)=O)C(=O)N[C@@H]2C(=O)N[C@@H](CO)C(=O)N[C@@H]1C(=O)N[C@@H](CO)C(=O)N[C@@H](Cc1ccccc1)C(=O)O [Darobactin 11] | +++++ | +++++ | ++++ | +++++ | –
C[C@@H]1NC(=O)[C@H]2NC(=O)[C@H](CC(N)=O)NC(=O)[C@@H](N)Cc3c[nH]c4c(cccc34)O[C@@H]2c2c[nH]c3cc(ccc23)[C@H](CCCN)[C@@H](C(=O)N[C@@H](CO)C(=O)N[C@@H](Cc2ccccc2)C(=O)O)NC1=O [Darobactin 14] | +++ | ++ | +++ | ++ | –
C[C@H](NC(=O)[C@H]1NC(=O)[C@H](CO)NC(=O)[C@H]2NC(=O)[C@H](CC(N)=O)NC(=O)[C@@H](N)Cc3c[nH]c4c(cccc34)O[C@@H]2c2c[nH]c3cc(ccc23)[C@@H]1CCCN)C(=O)N[C@@H](Cc1ccccc1)C(=O)O [Darobactin 16] | + | + | + | + | –
C[C@@H]1NC(=O)[C@H]2NC(=O)[C@H](CC(N)=O)NC(=O)[C@@H](N)Cc3c[nH]c4c(cccc34)O[C@@H]2c2c[nH]c3cc(ccc23)[C@H](CCCN)[C@@H](C(=O)N[C@@H](CO)C(=O)N[C@@H](Cc2c[nH]c3ccccc23)C(=O)O)NC1=O [Darobactin 30] | – | – | – | – | Concentration factor of crude extract at which full growth inhibition is observed [5]: 0.83x; Concentration factor of crude extract at which full growth inhibition is observed [6]: 0.83x; Concentration factor of crude extract at which full growth inhibition is observed [7]: 1.67x; Concentration factor of crude extract at which full growth inhibition is observed [8]: 0.11x
C[C@@H](O)[C@@H]1NC(=O)[C@H]2NC(=O)[C@H](CC(N)=O)NC(=O)[C@@H](N)Cc3c[nH]c4c(cccc34)O[C@@H]2c2c[nH]c3cc(ccc23)C(CCNC(=N)N)[C@@H](C(=O)N[C@@H](CCCNC(=N)N)C(=O)N[C@@H](Cc2c[nH]c3ccccc23)C(=O)O)NC1=O (stereo partly shown) [Darobactin 39] | – | – | – | – | Concentration factor of crude extract at which full growth inhibition is observed [5]: 0.42x; Concentration factor of crude extract at which full growth inhibition is observed [6]: 0.05x; Concentration factor of crude extract at which full growth inhibition is observed [7]: 0.42x; Concentration factor of crude extract at which full growth inhibition is observed [8]: 0.11x
N=C(N)NCC[C@H]1c2ccc3c(c[nH]c3c2)[C@H]2Oc3cccc4c(c[nH]c34)C[C@H](N)C(=O)N[C@@H](CC(N)=O)C(=O)N[C@@H]2C(=O)N[C@@H](CO)C(=O)N[C@@H]1C(=O)N[C@@H](CO)C(=O)N[C@@H](Cc1ccccc1)C(=O)O [Darobactin D] | ++++ | ++++ | 0 | ++++ | –
CCCCCCC1OC(=O)CNC(=O)C(C(C)O)NC(=O)C(CO)NC(=O)C(C(C)CC)NC(=O)C(CC(C)C)N(C)C(=O)C1C (stereo not shown) [Globomycin] | – | – | – | – | MIC [9]: 32 µg/mL (≈ 48.8 µM); MIC [10]: 64 µg/mL (≈ 97.6 µM); MIC [11]: >64 µg/mL; MIC [12]: 64 µg/mL (≈ 97.6 µM); MIC [13]: 32 µg/mL (≈ 48.8 µM); MIC [14]: 16 µg/mL (≈ 24.4 µM)
